Measurements taken from ChEMBL document CHEMBL3885881, “DrugMatrix”.

Species on record: Rattus norvegicus
Experiment: DrugMatrix - Regimen: Daily Repeat
Type: toxicity, organism-based, Sprague-Dawley
Set-up: regimen Daily Repeat, gender Male, age 6-8 weeks
Details: in vivo, sc, route subcutaneous, […]; for ABSOLUTE BASOPHIL / ABSOLUTE EOSINOPHIL / ABSOLUTE LYMPHOCYTE / ABSOLUTE MONOCYTE / ABSOLUTE SEGMENTED NEUTROPHIL / BASOPHIL / EOSINOPHIL / ERYTHROCYTE COUNT / HEMATOCRIT / HEMOGLOBIN / LEUKOCYTE COUNT / LYMPHOCYTE / MEAN CORPUSCULAR HEMOGLOBIN / MEAN CORPUSCULAR HEMOGLOBIN CONCENTRATION / MEAN CORPUSCULAR VOLUME / MONOCYTE / NEUTROPHIL / NUCLEATED RED BLOOD CELLS / PLATELET COUNT: tissue Blood; for ALANINE AMINOTRANSFERASE / ALBUMIN / ALKALINE PHOSPHATASE / ASPARTATE AMINOTRANSFERASE / BLOOD UREA NITROGEN / CARBON DIOXIDE / CHLORIDE / CHOLESTEROL / CREATINE PHOSPHOKINASE / CREATININE / GLUCOSE / LACTATE DEHYDROGENASE / LIPASE / PHOSPHORUS / POTASSIUM / SODIUM / TOTAL BILIRUBIN / TOTAL PROTEIN / URIC ACID: tissue Plasma
[1] = 50 mg/kg, 120 h, dose level Low, time 5 day
[2] = 201 mg/kg, 72 h, dose level High, time 3 day
[3] = 201 mg/kg, 120 h, dose level High, time 5 day

`CCCCOC(=O)c1ccc(N)cc1` [BUTAMBEN] was tested. Which “ABSOLUTE BASOPHIL” value [1] did it give?
Its value is 0 CELLS/uL.

What about the “ABSOLUTE EOSINOPHIL” value [1] of the same compound?
Its value is 200.67 CELLS/uL.

What about the “ABSOLUTE LYMPHOCYTE” value [1] of the same compound?
Its value is 13363.67 CELLS/uL.

What about the “ABSOLUTE MONOCYTE” value [1] of the same compound?
The value was 123.33 CELLS/uL.

And the “ABSOLUTE SEGMENTED NEUTROPHIL” value [1]?
The value was 2512.33 CELLS/uL.

And the BASOPHIL [1]?
The BASOPHIL was 0%.

And the EOSINOPHIL [1]?
Its EOSINOPHIL is 1.33%.

What about the “ERYTHROCYTE COUNT” value [1] of the same compound?
The value was 5.82 x10E6/uL.

What about the HEMATOCRIT [1] of the same compound?
Its HEMATOCRIT is 36.47%.

What about the HEMOGLOBIN [1] of the same compound?
The HEMOGLOBIN was 13.23 G/DL.

What about the “LEUKOCYTE COUNT” value [1] of the same compound?
The value was 16.2 x10E3/uL.

And the LYMPHOCYTE [1]?
Its LYMPHOCYTE is 82.33%.

And the “MEAN CORPUSCULAR HEMOGLOBIN” value [1]?
The value was 22.8 pg.

And the “MEAN CORPUSCULAR HEMOGLOBIN CONCENTRATION” value [1]?
The value was 36.3 G/DL.

What about the “MEAN CORPUSCULAR VOLUME” value [1] of the same compound?
The value was 62.77 fL.

What about the MONOCYTE [1] of the same compound?
The MONOCYTE was 0.67%.

And the NEUTROPHIL [1]?
Its NEUTROPHIL is 15.67%.

And the “NUCLEATED RED BLOOD CELLS” value [1]?
The value was 0 /100WBC.

What about the “PLATELET COUNT” value [1] of the same compound?
Its value is 1424.33 x10E3/uL.

What about the “ALANINE AMINOTRANSFERASE” value [1] of the same compound?
Its value is 47.67 u/L.

What about the ALBUMIN [1] of the same compound?
Its ALBUMIN is 4.3 G/DL.

What about the “ALKALINE PHOSPHATASE” value [1] of the same compound?
Its value is 349 u/L.

What about the “ASPARTATE AMINOTRANSFERASE” value [1] of the same compound?
Its value is 78.67 u/L.

And the “BLOOD UREA NITROGEN” value [1]?
Its value is 19.67 mg/dL.

What about the “CARBON DIOXIDE” value [1] of the same compound?
The value was 23.67 mmol/L.

And the CHLORIDE [1]?
The CHLORIDE was 105.67 MEQ/L.

What about the CHOLESTEROL [1] of the same compound?
Its CHOLESTEROL is 76.67 mg/dL.

What about the “CREATINE PHOSPHOKINASE” value [1] of the same compound?
The value was 340 u/L.

And the CREATININE [1]?
The CREATININE was 0.21 mg/dL.

What about the GLUCOSE [1] of the same compound?
Its GLUCOSE is 179.67 mg/dL.

What about the “LACTATE DEHYDROGENASE” value [1] of the same compound?
Its value is 100.67 u/L.

What about the LIPASE [1] of the same compound?
Its LIPASE is 8.33 u/L.

And the PHOSPHORUS [1]?
The PHOSPHORUS was 12.87 mg/dL.

What about the POTASSIUM [1] of the same compound?
The POTASSIUM was 6.56 MEQ/L.

What about the SODIUM [1] of the same compound?
The SODIUM was 145.27 MEQ/L.

What about the “TOTAL BILIRUBIN” value [1] of the same compound?
The value was 0.23 mg/dL.

What about the “TOTAL PROTEIN” value [1] of the same compound?
The value was 6.03 G/DL.

And the “URIC ACID” value [1]?
Its value is 1.9 mg/dL.

And the “ABSOLUTE BASOPHIL” value [2]?
The value was 0 CELLS/uL.

And the “ABSOLUTE EOSINOPHIL” value [2]?
The value was 70 CELLS/uL.

What about the “ABSOLUTE LYMPHOCYTE” value [2] of the same compound?
The value was 16456 CELLS/uL.

And the “ABSOLUTE MONOCYTE” value [2]?
The value was 124.67 CELLS/uL.

What about the “ABSOLUTE SEGMENTED NEUTROPHIL” value [2] of the same compound?
The value was 2816 CELLS/uL.

What about the BASOPHIL [2] of the same compound?
The BASOPHIL was 0%.

And the EOSINOPHIL [2]?
Its EOSINOPHIL is 0.33%.

And the “ERYTHROCYTE COUNT” value [2]?
Its value is 5.58 x10E6/uL.

What about the HEMATOCRIT [2] of the same compound?
The HEMATOCRIT was 36%.

What about the HEMOGLOBIN [2] of the same compound?
Its HEMOGLOBIN is 13.23 G/DL.

What about the “LEUKOCYTE COUNT” value [2] of the same compound?
Its value is 19.47 x10E3/uL.

And the LYMPHOCYTE [2]?
The LYMPHOCYTE was 84.67%.

What about the “MEAN CORPUSCULAR HEMOGLOBIN” value [2] of the same compound?
The value was 23.77 pg.

And the “MEAN CORPUSCULAR HEMOGLOBIN CONCENTRATION” value [2]?
The value was 36.8 G/DL.

What about the “MEAN CORPUSCULAR VOLUME” value [2] of the same compound?
Its value is 64.57 fL.

And the MONOCYTE [2]?
Its MONOCYTE is 0.67%.

What about the NEUTROPHIL [2] of the same compound?
Its NEUTROPHIL is 14.33%.

What about the “NUCLEATED RED BLOOD CELLS” value [2] of the same compound?
Its value is 0.67 /100WBC.

And the “PLATELET COUNT” value [2]?
Its value is 1165.33 x10E3/uL.

And the “ALANINE AMINOTRANSFERASE” value [2]?
The value was 57 u/L.

What about the ALBUMIN [2] of the same compound?
Its ALBUMIN is 4.07 G/DL.

And the “ALKALINE PHOSPHATASE” value [2]?
The value was 412 u/L.

What about the “ASPARTATE AMINOTRANSFERASE” value [2] of the same compound?
The value was 89.67 u/L.

And the “BLOOD UREA NITROGEN” value [2]?
The value was 16.33 mg/dL.

What about the “CARBON DIOXIDE” value [2] of the same compound?
Its value is 27.67 mmol/L.

What about the CHLORIDE [2] of the same compound?
Its CHLORIDE is 103 MEQ/L.

What about the CHOLESTEROL [2] of the same compound?
Its CHOLESTEROL is 70.67 mg/dL.

And the “CREATINE PHOSPHOKINASE” value [2]?
The value was 345 u/L.

And the CREATININE [2]?
Its CREATININE is 0.18 mg/dL.

And the GLUCOSE [2]?
The GLUCOSE was 160.33 mg/dL.

And the “LACTATE DEHYDROGENASE” value [2]?
Its value is 218 u/L.

And the LIPASE [2]?
Its LIPASE is 8.33 u/L.

And the PHOSPHORUS [2]?
Its PHOSPHORUS is 12.83 mg/dL.

What about the POTASSIUM [2] of the same compound?
The POTASSIUM was 6.76 MEQ/L.

And the SODIUM [2]?
The SODIUM was 143.8 MEQ/L.

What about the “TOTAL BILIRUBIN” value [2] of the same compound?
The value was 0.23 mg/dL.

What about the “TOTAL PROTEIN” value [2] of the same compound?
The value was 5.8 G/DL.

And the “URIC ACID” value [2]?
The value was 1.53 mg/dL.

And the “ABSOLUTE BASOPHIL” value [3]?
The value was 0 CELLS/uL.

What about the “ABSOLUTE EOSINOPHIL” value [3] of the same compound?
The value was 338.33 CELLS/uL.

And the “ABSOLUTE LYMPHOCYTE” value [3]?
The value was 17074 CELLS/uL.

And the “ABSOLUTE MONOCYTE” value [3]?
Its value is 209.67 CELLS/uL.

What about the “ABSOLUTE SEGMENTED NEUTROPHIL” value [3] of the same compound?
Its value is 3344.67 CELLS/uL.

What about the BASOPHIL [3] of the same compound?
The BASOPHIL was 0%.

And the EOSINOPHIL [3]?
Its EOSINOPHIL is 1.67%.

And the “ERYTHROCYTE COUNT” value [3]?
Its value is 5.22 x10E6/uL.

What about the HEMATOCRIT [3] of the same compound?
The HEMATOCRIT was 33.53%.

What about the HEMOGLOBIN [3] of the same compound?
The HEMOGLOBIN was 12.47 G/DL.

And the “LEUKOCYTE COUNT” value [3]?
Its value is 20.97 x10E3/uL.

And the LYMPHOCYTE [3]?
Its LYMPHOCYTE is 81.33%.

And the “MEAN CORPUSCULAR HEMOGLOBIN” value [3]?
Its value is 23.9 pg.

And the “MEAN CORPUSCULAR HEMOGLOBIN CONCENTRATION” value [3]?
Its value is 37.17 G/DL.

What about the “MEAN CORPUSCULAR VOLUME” value [3] of the same compound?
The value was 64.37 fL.

What about the MONOCYTE [3] of the same compound?
The MONOCYTE was 1%.

What about the NEUTROPHIL [3] of the same compound?
Its NEUTROPHIL is 16%.

And the “NUCLEATED RED BLOOD CELLS” value [3]?
The value was 0 /100WBC.

What about the “PLATELET COUNT” value [3] of the same compound?
The value was 1321.67 x10E3/uL.

And the “ALANINE AMINOTRANSFERASE” value [3]?
Its value is 47 u/L.

And the ALBUMIN [3]?
Its ALBUMIN is 4.17 G/DL.

What about the “ALKALINE PHOSPHATASE” value [3] of the same compound?
Its value is 353 u/L.

What about the “ASPARTATE AMINOTRANSFERASE” value [3] of the same compound?
Its value is 79.67 u/L.

What about the “BLOOD UREA NITROGEN” value [3] of the same compound?
Its value is 18 mg/dL.

And the “CARBON DIOXIDE” value [3]?
The value was 26.67 mmol/L.

And the CHLORIDE [3]?
Its CHLORIDE is 104.33 MEQ/L.

And the CHOLESTEROL [3]?
Its CHOLESTEROL is 51 mg/dL.

What about the “CREATINE PHOSPHOKINASE” value [3] of the same compound?
The value was 415 u/L.

And the CREATININE [3]?
Its CREATININE is 0.21 mg/dL.

What about the GLUCOSE [3] of the same compound?
The GLUCOSE was 163 mg/dL.

What about the “LACTATE DEHYDROGENASE” value [3] of the same compound?
The value was 103 u/L.

What about the LIPASE [3] of the same compound?
The LIPASE was 8 u/L.

And the PHOSPHORUS [3]?
The PHOSPHORUS was 12.37 mg/dL.

And the POTASSIUM [3]?
The POTASSIUM was 6.72 MEQ/L.

What about the SODIUM [3] of the same compound?
Its SODIUM is 144.47 MEQ/L.

And the “TOTAL BILIRUBIN” value [3]?
The value was 0.37 mg/dL.

What about the “TOTAL PROTEIN” value [3] of the same compound?
The value was 6.07 G/DL.

And the “URIC ACID” value [3]?
The value was 1.93 mg/dL.
